Data set [1] has as its target interaction between chemokine and a chemokine receptor (Homo sapiens, UniProt P51681). Put plainly: antagonistic activity against the interaction between chemokine and a chemokine receptor (method described in WO 01/40227). The class given is biochemical. The note with it: compared with the amorphous substance produced by the method of WO 02/074770.
Data set [2] has as its system rats. The note with it: rat, in vivo, 2000 mg/kg. As for the experimental part: Thus, the inventive compound is determined as sufficiently safe for medical use.

This note sets out measurements from patent US7361758B2, “Crystals of triazaspiro[5.5]undecane derivative” (Ono Pharmaceutical Co., Ltd., priority 2002, dated 2008).

Chain of interaction between chemokine and a chemokine receptor (P51681 whole entry): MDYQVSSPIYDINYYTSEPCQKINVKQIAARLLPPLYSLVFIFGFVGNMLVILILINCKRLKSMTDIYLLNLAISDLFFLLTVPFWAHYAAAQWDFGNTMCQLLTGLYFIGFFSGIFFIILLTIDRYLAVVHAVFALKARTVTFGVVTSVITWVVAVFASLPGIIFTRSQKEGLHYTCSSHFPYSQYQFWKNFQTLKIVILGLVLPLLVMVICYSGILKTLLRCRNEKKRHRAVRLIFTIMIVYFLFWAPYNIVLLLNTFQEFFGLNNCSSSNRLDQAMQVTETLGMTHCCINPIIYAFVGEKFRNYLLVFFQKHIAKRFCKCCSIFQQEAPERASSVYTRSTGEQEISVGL

With `CCCCN1C(=O)[C@@H]([C@H](O)C2CCCCC2)NC(=O)C12CCN(Cc1ccc(Oc3ccc(C(=O)O)cc3)cc1)CC2.Cl` [Crystal A, (3R)-1-butyl-2,5-dioxo-3-[(1R)-1-hydroxy-1-cyclohexylmethyl]-9-[4-(4-carboxyphenyloxy)phenylmethyl]-1,4,9-triazaspiro[5.5]undecane Hydrochloride], the “antagonistic activity against the interaction between chemokine and a chemokine receptor” value in data set [1] is reported as “almost the same level as that of the amorphous substance”. The toxicity result in data set [2] was “never showed distinct toxicity”.
